We go through five compounds from patent US9079821B2, “Quinone based nitric oxide donating compounds” (NICOX S.A., priority 2011, dated 2015).

A short description of data set [1]: Pharmacokinetic profile in mice (blood 15N-nitrite levels). It counts as in vivo. Conditions: CD1 mice. The procedure: (§1) The absorption and in vivo NO-donating property of the compounds of the invention were assessed by the evaluation of blood ^15N-nitrite levels following oral administration.
Tested Compounds: • 10-(4,5-dimethoxy-2-methyl-3,6-dioxocyclohexa-1,4-dienyl)decyl nitrate-nitrogen-15 which correspond to compound (6) containing nitrogen-15 (^15N-Compound (6)); • 5-isorbide mononitrate containing nitrogen-15 (5-ISM^15N)
Male CD1 mice (n=3/time point) were orally treated with ^15N-Compound (6) at 100 mg/kg or 5-ISM^15N (30 mg/kg). At each time point (5, 10, 15, 30, 60, 120, 240, 360, 480 and 1440 min) blood was taken by cardiac puncture using heparin to avoid blood clotting. Blood samples were immediately protein crushed. Samples were analyzed by LC-MS/MS. ^15N-nitrite levels following oral administration of Compound (6) (100 mg/kg) or 5-ISM^15N (30 mg/kg) in CD1 mice are reported in Table 6.

Data set [2] in a line: Pharmacokinetic profile in rats (blood 15N-nitrite levels). The class given is in vivo, rat. Conditions: rat, in vivo, po, 30 mg/kg. As to the method: as §1
Tested Compounds: • 5-(2,4,5-trimethyl-3,6-dioxocyclohexa-1,4-dienylpentyl nitrate-nitrogen-15 which corresponds to compound (1) containing nitrogen-15 (^15N-Compound (1)); • 5-(4,5-dimethoxy-2-methyl-3,6-dioxocyclohexa-1,4-dienyl)pentyl nitrate-nitrogen-15 which corresponds to compound (2) containing nitrogen-15 (^15N-Compound (2)); • 4-(2,4,5-trimethyl-3,6-dioxocyclohexa-1,4-dienyl)butyl nitrate-nitrogen-15 which corresponds to compound (3) containing nitrogen-15 (^15N-Compound (3)); • 4-(4,5-dimethoxy-2-methyl-3,6-dioxocyclohexa-1,4-dienyl)butyl nitrate-nitrogen-15 which corresponds to compound (4) containing nitrogen-15 (^15N-Compound (4)); • 10-(2,4,5-trimethyl-3,6-dioxocyclohexa-1,4-dienyl)decyl nitrate-nitrogen-15 which corresponds to compound (5) containing nitrogen-15 (^15N-Compound (5)); • 10-(4,5-dimethoxy-2-methyl-3,6-dioxocyclohexa-1,4-dienyl)decyl nitrate-nitrogen-15 which corresponds to compound (6) containing nitrogen-15 (^15N-Compound (6)); • 3-(3-(4,5-dimethoxy-2-methyl-3,6-dioxocyclohexa-1,4-dienyl)propoxy)propyl nitrate-nitrogen-15 which corresponds to compound (14) containing nitrogen-15 (^15N-Compound (14)); • 6-(2,4,5-trimethyl-3,6-dioxocyclohexa-1,4-dienyl)hexyl nitrate-nitrogen-15 which corresponds to compound (15) containing nitrogen-15 (^15N-Compound (15)); • 6-(4,5-dimethoxy-2-methyl-3,6-dioxocyclohexa-1,4-dienyl)hexyl nitrate-nitrogen-15 which corresponds to compound (16) containing nitrogen-15 (^15N-Compound (16)); • 11-(4,5-dimethoxy-2-methyl-3,6-dioxocyclohexa-1,4-dienyl)-undecane-1,2-diyl dinitrate-nitrogen-15 which corresponds to compound (17) containing nitrogen-15 (^15N-Compound (17)); • 8-(5-methoxy-2,4-dimethyl-3,6-dioxocyclohexa-1,4-dienyl)octyl nitrate-nitrogen—which corresponds to compound (19) containing nitrogen-15 (^15N-Compound (19)); • 2-(3-(4,5-dimethoxy-2-methyl-3,6-dioxocyclohexa-1,4-dienyl)propoxy)ethyl nitrate-nitrogen-15 which corresponds to compound (20) containing nitrogen-15 (^15N-Compound (20)); • 6-(3-methyl-1,4-dioxo-1,4-dihydronaphthalen-2-yl)hexyl nitrate-nitrogen-15 which corresponds to compound (23) containing nitrogen-15 (^15N-Compound (23)); • 3-(3-(3-methyl-1,4-dioxo-1,4-dihydronaphthalen-2-yl)propoxy)propyl nitrate-nitrogen-15 which corresponds to compound (25) containing nitrogen-15 (^15N-Compound (25)); • 6-(5-methoxy-2,4-dimethyl-3,6-dioxocyclohexa-1,4-dienyl)hexyl nitrate-nitrogen-15 which corresponds to compound (28) containing nitrogen-15 (^15N-Compound (28)); • 6-(4-methoxy-2,5-dimethyl-3,6-dioxocyclohexa-1,4-dienyl)hexyl nitrate-nitrogen-15 which corresponds to compound (29) containing nitrogen-15 (^15N-Compound (29)); • 8-(4-methoxy-2,5-dimethyl-3,6-dioxocyclohexa-1,4-dienyl)octyl nitrate-nitrogen-15 which corresponds to compound (32) containing nitrogen-15 (^15N-Compound (32)); • 8-(2,4,5-trimethyl-3,6-dioxocyclohexa-1,4-dienyl)octyl nitrate-nitrogen-15 which corresponds to compound (34) containing nitrogen-15 (^15N-Compound (34)); • 5-isorbide mononitrate containing nitrogen-15 (5-ISM^15N).
(§2) Cannulated SD rats were orally treated with ^15N-Compounds (6) at 30 mg/kg, 5-ISM^15N (30 mg/kg), or ^15N-Compounds (1)-(5), 14)-(17), (19), (20), (23), (25), (28), (29), (32), (34) at 30 mg/kg. At each time point (5, 10, 15, 30, 60, 180, 360 and 1440 min) blood was taken using heparin to avoid blood clotting. Blood samples were immediately protein crushed. Samples were analyzed by LC-MS/MS.
In Table 7 are reported ^15N-nitrite blood levels following oral administration of SD rats with 5-ISM^15N (30 mg/kg) or with ^15N-labeled corresponding compounds of the invention (30 mg/kg).

Data set [3] deals with rat L-NAME-induced hypertension. The data set can be described thus: Rat L-NAME-induced hypertension, systolic blood pressure after single oral dose. It counts as in vivo. Conditions: for Delta vs basal (mmHg): 5-ISMN 30 mg/kg oral, L-NAME 50 mg/kg i.p. As to the method:
To assess the in vivo NO-dependent activity, Compound (6) was evaluated for systolic blood pressure (SBP) reduction efficacy in a rat model of NO-deprivation induced by L-NAME and compared with 5-ISMN.
(§3) Fasted male SD rats (250-300 g, n=3-5 per group), obtained from Harlan Italy (Correzzana, Milan, Italy) were orally treated with tested compounds or vehicle (DMSO:Methocel 1% 2/98 v/v) in a total volume of 4 ml/kg by gavage. At each time point (1, 3, 6 and 24 h) animals were deeply anesthetized with Zoletil® 100 (3 mg/kg), given intramuscularly. Thereafter, a pressure catheter (Samba Sensors, Harvard Apparatus, UK) was introduced into the common carotid artery for central blood pressure measurement. Pressure transducer was connected to a personal computer, in order to allow real time monitor of the pressure tracing. After 10 minutes of basal recording, L-NAME (50 mg/kg) was administered intraperitoneally and the effect on SBP monitored. When the SBP stabilized (5 minutes without variations) the recording was stopped. To further confirm that functional activity was NO-dependent, at each time point blood ^15N-nitrite levels were measured following the procedure described in Example 12.

Data set [4] is described as follows: Blood 15N-nitrite levels in the rat L-NAME-induced hypertension study. The class given is in vivo. Conditions: 5-ISMN 30 mg/kg oral. As to the method:
as §3, §2

The test system of data set [5] is rat L-NAME-induced hypertension. The data set can be described thus: In vivo tolerance evaluation (L-NAME-induced hypertension after 5-day oral treatment). Conditions: for Delta vs basal (mmHg): peak effect 1 hour. The procedure:
as §3
To investigate whether the compound (6) induced nitrate tolerance, as observed for most of the drugs belonging to the nitrate class, the L-NAME-induced hypertension rat model described in Example 7 was performed following a repeated oral treatment. Rats were orally treated for 5 days with vehicle, compound (6) (100 mg/kg) or 5-ISMN (30 mg/kg). […] The experiments were performed at the peak effect (1 hour for 5-ISMN and 3 hours for Compound (6)), results are reported in Table 3.

The test system of data set [6] is isolated aortas from rats. Description: Ex vivo tolerance evaluation (vascular response of isolated aortas from treated rats). It counts as in vivo, rat. Conditions: for EC50: vascular response to 5-ISMN, 1 h after last administration. The procedure:
(§4) Thoracic aortas from male New Zealand rabbits or male Sprague Dawley (SD) were used. The aortas were placed immediately in Krebs-HEPES buffer (pH 7.4; composition mM: NaCl 130.0, KCl 3.7, NaHCO3 14.9, KH2PO4 1.2, MgSO4.7H2O 1.2, Glucose 11.0, HEPES 10.0, CaCl2.2H2O 1.6). Connective tissue was removed and aortas were cut into ring segments (4-5 mm in length). Each ring was placed in a 5 mL tissue bath filled with Krebs-HEPES buffer (37° C.) aerated with 95% O2 and 5% CO2 and was attached to a force transducer (Grass FT03), connected to a BIOPAC MP150 System for measurement of the isometric tension. Preparations were allowed to equilibrate for 1 h at a resting tension of 2 g for rabbit aortas and 1 g for rat aortas with changes of the buffer every 15 min. Then the rings were stimulated by exposure to 90 mM KCl (3 times) with intervening washings.
(§5) Rat aorta. After equilibration, rat aortas were precontracted with KCl (90 mM) and, when the contraction was stable, a cumulative concentration-response curve to acetylcholine (ACh, 0.01-100 μM) was added. After washout, the rings were precontracted again with KCl (90 mM). When a steady-state level of contraction was obtained, a cumulative concentration-response curve to the tested compounds (0.01-100 μM) was obtained.
(§6) Data analysis. Results are given as mean±SEM. Vascular responses are expressed as percentage relaxation and plotted vs concentration. The sensitivity of isolated aorta to different vasodilators is expressed as the concentration that elicited 50% of the maximal responses (EC50). Responses are quantified in terms of EC50 and Emax (maximal vasodilating effect) values, obtained from the concentration-response curve by nonlinear curve fitting, using GraphPad software.
Tolerance to nitrate was further investigated assessing the vascular effects of Compound (6) following repeated treatment compared with 5-ISMN. The vascular response to the compound itself was assessed on isolated aortas from rats orally treated for 5 days with Compound (6) (100 mg/kg). The vascular response was performed as described in Example 6.
Vascular responses were performed 1 h (ISMN) or 3 h (Compound (6)) after the last administration, the concentrations of tested compound that elicited the 50% of the maximal responses (EC50) are shown in Table 4.

The subject of data set [7] is rat aorta, endothelial-dependent vasodilation (response to ACh). Description: Endothelial dysfunction evaluation (vascular response to acetylcholine after treatment). Conditions: for % relaxation (Emax): response to ACh. It counts as in vivo. The procedure:
as §4, §5, §6
Endothelial-dependent vasodilation (vascular response to acetylcholine, ACh) was assessed following 5-day treatment with Compound (6) (100 mg/kg) or 5-ISMN (30 mg/kg). A relaxant response to ACh indicated the presence of a functional endothelium. The vascular response was performed as described in Example 6.

Consider `O=[N+]([O-])O[C@@H]1CO[C@H]2[C@@H]1OC[C@@H]2O` [5-ISM^15N, 5-isorbide mononitrate containing nitrogen-15, reference compound], for which, in data set [1] (oral 30 mg/kg), the “15N-nitrite AUC0-24” value turned out to be 2758 µM·min, the “15N-nitrite Tmax” value came out at 30 min and the highest level (Cmax) was 27.5 ± 3 µM. For the same compound, in data set [2], the “15N-nitrite AUC0-24” value came out at 7399 µM·min, the “15N-nitrite Tmax” value stood at 60 min and the highest concentration (Cmax) was determined as 20.6 ± 4.2 µM.
`O=[N+]([O-])O[C@@H]1CO[C@H]2[C@@H]1OC[C@@H]2O` [Compound 5-ISMN, isosorbide-5-mononitrate, reference compound]: the “Delta vs basal (mmHg)” value in data set [3] (1 hour) is listed as 10.5 ± 6.1 mmHg; in data set [3] (3 hours), 6.5 ± 2.4 mmHg; in data set [3] (6 hours), 51.2 ± 5.7 mmHg; in data set [3] (24 hours), 83 ± 9 mmHg; in data set [5] (acute treatment, 5-ISMN 30 mg/kg oral), 10.5 ± 6.1 mmHg; in data set [5] (repeated (5 days) oral treatment, 5-ISMN 30 mg/kg), 88 ± 11.5 mmHg. For the same compound, the “time over which L-NAME induced hypertension was counteracted after treatment” value in data set [3] (5-ISMN 30 mg/kg, single oral administration) is at most 3 h. In addition, the “15N-nitrite levels” value in data set [4] (1 hour) worked out at 11.0 ± 0.5 µM; in data set [4] (3 hours), 8.7 ± 0.7 µM; in data set [4] (6 hours), 6.5 ± 0.5 µM; in data set [4] (24 hours), 0.34 ± 0.06 µM. Further, the “efficacy against L-NAME-induced hypertension after 5-day treatment (nitrate tolerance), in words” value in data set [5] (5-ISMN 30 mg/kg oral, 5 days) is “did not maintain its efficacy in preventing L-NAME-induced hypertension”. Moreover, the “vascular response of aortas from treated animals vs control arteries, in words” value in data set [6] (5-ISMN 30 mg/kg, repeated treatment) is listed as “showed a reduced vascular response to 5-ISMN compared to control arteries”. For the same compound, the concentration giving a half-maximal response (EC50) in data set [6] (acute, aortas of rats given 5-ISMN 30 mg/kg) was 20 ± 0.6 µM; in data set [6] (repeated (5 days oral) 5-ISMN 30 mg/kg), 127 ± 48 µM. For the same compound, the “effect on endothelial-dependent vasorelaxation, in words” value in data set [7] (5-ISMN 30 mg/kg, 5-day treatment) is “caused a reduced response to Ach”. Also, the “% relaxation (Emax)” value in data set [7] (acute, 5-ISMN 30 mg/kg) is given as 92.7 ± 4.3%; in data set [7] (repeated (5-day) 5-ISMN 30 mg/kg), 78.2 ± 9.2%.
Consider `COC1=C(OC)C(=O)C(CCCCCCCCCCO[15N+](=O)[O-])=C(C)C1=O` [^15N-Compound (6), 10-(4,5-dimethoxy-2-methyl-3,6-dioxocyclohexa-1,4-dienyl)decyl nitrate-nitrogen-15], for which, in data set [1] (oral 100 mg/kg), the “15N-nitrite AUC0-24” value is 1225 µM·min and the “15N-nitrite Tmax” value was found to be 30 min. In addition, in data set [2], the “15N-nitrite AUC0-24” value was found to be 2469 µM·min and the “15N-nitrite Tmax” value was found to be 180 min.
`COC1=C(OC)C(=O)C(CCCCCCCCCCO[N+](=O)[O-])=C(C)C1=O` [^15N-Compound (6), 10-(4,5-dimethoxy-2-methyl-3,6-dioxocyclohexa-1,4-dienyl)decyl nitrate-nitrogen-15]: the highest concentration (Cmax) in data set [1] (oral 100 mg/kg) was 3.1 ± 0.3 µM; in data set [2], 2.6 ± 0.2 µM.
Take `CC1=C(C)C(=O)C(CCCCCCCCO[N+](=O)[O-])=C(C)C1=O` [^15N-Compound (34), 8-(2,4,5-trimethyl-3,6-dioxocyclohexa-1,4-dienyl)octyl nitrate-nitrogen-15]: the Cmax in data set [2] turned out to be 2.8 ± 0.25 µM.

Usually Cmax stands for the peak of the concentration-time curve. As a reminder, the EC50 is the concentration giving half of the maximal effect. Read a low EC50 as higher potency in that assay.
